Experimental data: PMC9207806 (ACS Chemical Biology, 2022)
Structures can show the parent of a compound that is named as a salt.

Biological target: T1, D9 (Vaccinia virus, UniProt P04311)
T1 construct: His-tag (C); made in house
Experiment: not given
Conditions: cited from earlier work

Compound | D9 inhibition (literature)
C[n+]1cn([C@@H]2O[C@H](COP(=O)([O-])OP(=O)(O)O)[C@@H](O)[C@H]2O)c2nc(N)[nH]c(=O)c21 [m7GDP] | less potent D9 inhibitors

Biological target: T2, VACV D9 decapping enzyme (Vaccinia virus, UniProt P04311)
T2 construct: His-tag (C); made in house
Experiment: biochemical
Format: biochemical
Conditions: not given
Experimental: Point fluorescence measurements were performed using the BioTek Synergy H1 microplate reader. Before each measurement, the reaction buffer was degassed. Experiments were performed in the Greiner 96-well, black, non-binding plates at 30 °C. Before the measurement, the plate was preincubated for 15 min at 30 °C with mixing (300 rpm). The point fluorescence was registered with 1 min interval and detection at 345 nm excitation wavelength and 378 nm emission wavelength.
Experiments to determine IC50 parameters were performed as point fluorescence measurements. Each well contained an appropriate buffer (10 mM MOPS·HCl, pH 7.0, 100 mM KOAc, containing 2 mM MgCl2, 0.3 mM MnCl2, and 2 mM DTT) with addition of 0.1% BSA, a fluorescent substrate (3 μM of probe 1b), an inhibitor (in half-logarithmic dilution, cinh ∈ 0, 100 μM), and an enzyme (5 nM of D9) to a final volume of 150 μL. To determine the IC50 values, a three parameter dose–response formula with standard hill slope from GraphPad Prism software was fitted [drawing 3] where V/V0 is the relative initial rate of the reaction, Imin and Imax are bottom and top plateaus, and Cinh is the concentration of the inhibitor.

Compound | IC50
Nc1nc2ccc(Cl)cc2c2nc(-c3ccco3)nn12 [CGS-15943, reference compound] | 20.1 ± 5.2 µM
Nc1nc2c(cnn2CCc2ccccc2)c2nc(-c3ccco3)nn12 [SCH 58261, reference compound] | 4.5 ± 0.8 µM
COc1cc(NS(C)(=O)=O)ccc1Nc1c2ccccc2nc2ccccc12 [amsacrine hydrochloride, reference compound] | 12.6 ± 1.7 µM
C[n+]1cn([C@@H]2O[C@H](COP(=O)([O-])OP(=O)(O)O)[C@@H](O)[C@H]2O)c2nc(N)[nH]c(=O)c21 [m7GDP] | 14.2 ± 2.4 µM

Same assay, conditions: in-house nucleotide library (Table S1, Figure 3); 3 μM probe 1b, 5 nM D9, 30 °C; means of 3 independent experiments ± SEM; read-out: IC50, nucleotide-derived compounds, FLINT HTS assay

Compound | IC50
Nc1ncnc2c1ncn2[C@@H]1O[C@H](COP(O)(=S)OP(=O)(O)OP(O)(=S)OC[C@H]2O[C@@H](n3cnc4c(N)ncnc43)[C@H](O)[C@@H]2O)[C@@H](O)[C@H]1O (stereo partly drawn) [ApSppSA] | > 100 µM
Nc1ncnc2c1ncn2[C@@H]1O[C@H](COP(=O)(O)OP(=O)(O)OP(=O)(O)OC[C@@H]2O[C@H](n3cnc4c(N)ncnc43)[C@@H](O)[C@H]2O)[C@@H](O)[C@H]1O [ApppA] | > 100 µM
Cc1n([C@@H]2O[C@H](COP(=O)(O)OP(=O)(O)O)[C@@H](O)[C@H]2O)c2nc(N)[nH]c(=O)c2[n+]1C [Compound 8Mem7GDP, 8Mem7GDP] | > 100 µM
Cc1n([C@@H]2O[C@H](COP(=O)(O)OP(=O)(O)OP(=O)(O)O)[C@@H](O)[C@H]2O)c2nc(N)[nH]c(=O)c2[n+]1C [Compound 8Mem7GTP, 8Mem7GTP] | 42.9 ± 7.8 µM
Nc1nc2c(ncn2[C@@H]2O[C@H](COP(=O)(O)OP(=O)(O)OP(=O)(O)O)[C@@H](O)[C@H]2O)c(=O)[nH]1 [GTP, reference compound] | 15.4 ± 2.7 µM
Nc1nc2c(ncn2[C@@H]2O[C@H](COP(=O)(O)OP(=O)(O)OP(=O)(O)OC[C@H]3O[C@@H](n4cnc5c(N)ncnc54)[C@H](O)[C@@H]3O)[C@@H](O)[C@H]2O)c(=O)[nH]1 [GpppA] | > 100 µM
Nc1nc2c(ncn2[C@@H]2O[C@H](COP(=O)(O)OP(=O)(O)OP(=O)(O)OC[C@H]3O[C@@H](n4cnc5c(=O)[nH]c(N)nc54)[C@H](O)[C@@H]3O)[C@@H](O)[C@H]2O)c(=O)[nH]1 [GpppG] | > 100 µM
C[n+]1cn([C@@H]2O[C@H](COP([O-])(=S)OP(=O)(O)O)[C@@H](O)[C@H]2O)c2nc(N)[nH]c(=O)c21 (stereo partly drawn) [m7GDPαS D1] | 8.3 ± 1.7 µM
C[n+]1cn([C@@H]2O[C@H](COP(O)(=S)OP(=O)(O)O)[C@@H](O)[C@H]2O)c2nc(N)[nH]c(=O)c21 (stereo partly drawn) [m7GDPαS D2] | 7.6 ± 1.2 µM
Cn1c[n+]([C@@H]2O[C@H](COP(=O)(O)O)[C@@H](O)[C@H]2O)c2nc(N)[nH]c(=O)c21 [m7GMP] | > 100 µM
C[n+]1cn([C@@H]2O[C@H](COP(O)(=S)OP(=O)(O)OP(=O)(O)O)[C@@H](O)[C@H]2O)c2nc(N)[nH]c(=O)c21 (stereo partly drawn) [m7GTPαS] | 0.64 ± 0.06 µM
C[n+]1cn([C@@H]2O[C@H](COP(=O)(O)CP(=O)(O)OP(=O)(O)OC[C@H]3O[C@@H](n4cnc5c(=O)[nH]c(N)nc54)[C@H](O)[C@@H]3O)[C@@H](O)[C@H]2O)c2nc(N)[nH]c(=O)c21 [m7GpCH2ppG] | 16.8 ± 3.3 µM
C[n+]1cn(C2OC(COP(=O)(O)OP(=O)([O-])C(Cl)(Cl)P(=O)(O)OP(=O)(O)OCC3OC(n4cnc5c(=O)[nH]c(N)nc54)C(O)C3O)C(O)C2O)c2nc(N)nc(O)c21 (stereo not drawn) [m7GppCCl2ppG] | 41.4 ± 6.6 µM
C[n+]1cn(C2OC(COP(=O)(O)OP(=O)([O-])C(F)(F)P(=O)(O)OP(=O)(O)OCC3OC(n4cnc5c(=O)[nH]c(N)nc54)C(O)C3O)C(O)C2O)c2nc(N)nc(O)c21 (stereo not drawn) [m7GppCF2ppG] | 16.7 ± 3.1 µM
C[n+]1cn(C2OC(COP(=O)([O-])OP(=O)(O)C(F)(F)P(=O)(O)OP(=O)([O-])OCC3OC(n4c[n+](C)c5c(=O)[nH]c(N)nc54)C(O)C3O)C(O)C2O)c2nc(N)[nH]c(=O)c21 (stereo not drawn) [m7GppCF2ppm7G] | 14.7 ± 2.6 µM
CO[C@@H]1[C@H](OP(=O)(O)OC[C@H]2O[C@@H](n3cnc4c(=O)[nH]c(N)nc43)[C@H](O)[C@@H]2O)[C@@H](COP(=O)(O)CP(=O)(O)OP(=O)([O-])OC[C@H]2O[C@@H](n3c[n+](C)c4c(O)nc(N)nc43)[C@H](O)[C@@H]2O)O[C@H]1n1cnc2c(N)ncnc21 [m7GppCH2pAmpG] | 27.4 ± 6.2 µM
C[n+]1cn([C@@H]2O[C@H](COP(=O)([O-])OP(=O)(O)CP(=O)(O)O)[C@@H](O)[C@H]2O)c2nc(N)nc(O)c21 [m7GppCH2p] | 1.1 ± 0.1 µM
C[n+]1cn(C2OC(COP(=O)([O-])OP(=O)(O)OP(=O)(O)OCC3OC(n4cnc5c(=S)[nH]c(N)nc54)C(O)C3O)C(O)C2O)c2nc(N)[nH]c(=O)c21 (stereo not drawn) [m7Gppp6SG] | 14.1 ± 1.7 µM
CNc1ncnc2c1ncn2[C@@H]1O[C@H](COP(=O)(O)OP(=O)(O)OP(=O)(O)OC[C@H]2O[C@@H](n3c[n+](C)c4c(=O)[nH]c(N)nc43)[C@H](O)[C@@H]2O)[C@@H](O)[C@H]1O [m7Gppp(m6A)] | 31.5 ± 5.9 µM
Cn1c[n+]([C@@H]2O[C@H](COP(=O)(O)OP(=O)(O)OP(=O)(O)OC[C@H]3O[C@@H](n4cnc5c(N)ncnc54)[C@H](O)[C@@H]3O)[C@@H](O)[C@H]2O)c2nc(N)[nH]c(=O)c21 [m7GpppA] | 33 ± 5.9 µM

Compound | IC50
CO[C@@H]1[C@H](O)[C@@H](COP(=O)(O)OP(=O)(O)OP(=O)(O)OC[C@H]2O[C@@H]([n+]3cn(C)c4c(=O)[nH]c(N)nc43)[C@H](O)[C@@H]2O)O[C@H]1n1cnc2c(N)ncnc21 [m7GpppAm] | 19.8 ± 3.6 µM
CO[C@@H]1[C@H](OP(=O)(O)OC[C@H]2O[C@@H](n3cnc4c(=O)[nH]c(N)nc43)[C@H](O)[C@@H]2O)[C@@H](COP(=O)(O)OP(=O)(O)OP(=O)([O-])OC[C@H]2O[C@@H]([n+]3cn(C)c4c(=O)[nH]c(N)nc43)[C@H](O)[C@@H]2O)O[C@H]1n1cnc2c(N)ncnc21 [m7GpppAmpG] | 20.4 ± 3.4 µM
CO[C@@H]1[C@H](OP(=O)(O)OC[C@H]2O[C@@H](n3cnc4c(=O)[nH]c(N)nc43)[C@H](O)[C@@H]2O)[C@@H](COP(=O)(O)OP(=O)(O)OP(=O)([O-])OC[C@H]2O[C@@H]([n+]3cn(C)c4c(=O)[nH]c(N)nc43)[C@H](O)[C@@H]2O)O[C@H]1n1cnc2c(=O)[nH]c(N)nc21 [m7GpppGmpG] | 12 ± 2.4 µM
CNc1ncnc2c1ncn2[C@@H]1O[C@H](COP(=O)(O)OP(=O)(O)OP(=O)(O)OC[C@H]2O[C@@H](n3c[n+](C)c4c(=O)[nH]c(N)nc43)[C@H](O)[C@@H]2O)[C@@H](OP(=O)(O)OC[C@H]2O[C@@H](n3cnc4c(=O)[nH]c(N)nc43)[C@H](O)[C@@H]2O)[C@H]1O [m7Gpppm6ApG] | 16.9 ± 3.2 µM
C[n+]1cn([C@@H]2O[C@H](COP(=O)(O)OP(=O)(O)OP(=O)(O)OC[C@H]3O[C@@H](n4c[n+](C)c5c(=O)[nH]c(N)nc54)[C@H](O)[C@@H]3O)[C@@H](O)[C@H]2O)c2nc(N)[nH]c(=O)c21 [m7Gpppm7G] | 14.3 ± 2.1 µM
C[n+]1cn(C2OC(COP(=O)([O-])OP(=O)(O)OP(=O)(O)OP(=O)(O)OP(=O)(O)OCC3OC(n4cnc5c(=O)[nH]c(N)nc54)C(O)C3O)C(O)C2O)c2nc(N)[nH]c(=O)c21 (stereo not drawn) [m7GpppppG] | 13.9 ± 2.5 µM
CO[C@H]1[C@@H](O)[C@H]([n+]2cn(C)c3c(=O)[nH]c(N)nc32)O[C@@H]1COP(=O)([O-])OP(=O)(O)OP(=O)(O)OC[C@H]1O[C@@H](n2cnc3c(=O)[nH]c(N)nc32)[C@H](O)[C@@H]1O [m27,3’OGpppG] | 10.6 ± 1.1 µM
Gpp-SCH2-triazole-m7G | > 100 µM
Gpp-triazole-m7G | > 100 µM
Gppp-SCH2-triazole-m7G | > 100 µM
Gppp-triazole-m7G | 35 ± 5.3 µM
m7GNpppG | 32.1 ± 5.9 µM
m7Gmppp6SG | 7.2 ± 1.1 µM
m7Gpp-SCH2-triazole-G | 46 ± 6.8 µM
m7Gpp-triazole-G | 17.5 ± 2.6 µM
m7GppCCl2ppm7G | 28.8 ± 4.1 µM
m7GppCCppG | 24.4 ± 4 µM
m7Gppp m6AmpG | 17.4 ± 3 µM
m7Gppp-SCH2-triazole-G | 24.9 ± 4.8 µM
m7GpppApG | 11.3 ± 2 µM

Same assay, conditions: read-out: IC50, nucleotide-derived compounds, FLINT HTS assay; in-house nucleotide library (Table S1, Figure 3); 3 μM probe 1b, 5 nM D9, 30 °C; means of 3 independent experiments ± SEM

Compound | IC50
CO[C@@H]1[C@H](OP(=O)(O)OC[C@H]2O[C@@H](n3cnc4c(=O)[nH]c(N)nc43)[C@H](O)[C@@H]2O)[C@@H](COP(=O)(O)OP(=O)([O-])OP(=O)(O)OC[C@H]2O[C@@H](n3c[n+](C)c4c(=O)[nH]c(N)nc43)[C@H](O)[C@@H]2OC)O[C@H]1n1cnc2c(=O)[nH]c(N)nc21 [m7GmpppGmpG] | 3.9 ± 0.5 µM
C[n+]1cn([C@@H]2O[C@H](COP(=O)(O)CP(=O)([O-])OP(=O)(O)O)[C@@H](O)[C@H]2O)c2nc(N)nc(O)c21 [m7GpCH2pp] | 0.58 ± 0.06 µM

Same assay, conditions: read-out: IC50, nucleotide-derived compounds, FLINT HTS assay; in-house nucleotide library (Table S1, Figure 3); 3 μM probe 1b, 5 nM D9, 30 °C; means of 3 independent experiments ± SEM; listed as m^7GmpppGmpG

Compound | IC50
CO[C@@H]1[C@H](OP(=O)(O)OC[C@H]2O[C@@H](n3cnc4c(=O)[nH]c(N)nc43)[C@H](O)[C@@H]2O)[C@@H](COP(=O)(O)OP(=O)([O-])OP(=O)(O)OC[C@H]2O[C@@H](n3c[n+](C)c4c(=O)[nH]c(N)nc43)[C@H](O)[C@@H]2OC)O[C@H]1n1cnc2c(=O)[nH]c(N)nc21 [m7GmpppGmpG] | ~4 µM
